Assay in all cases: MIC against standard strains (Test Example 3)
Common to all, as to format: cell-based

In test [1] the test system is K. pneumoniae No. 42. The conditions noted are these: Klebsiella pneumoniae; K. pneumoniae No. 42 (Test Example 3); read-out: MIC. The essentials: (§1)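 Agar dilution MIC; Mueller-Hinton agar; inoculum 1 x 10^6 CFU/ml from overnight 37°C MH broth culture; read after overnight incubation at 37°C; MIC = lowest concentration with no growth.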
Test [2] deals with P. mirabilis IFO3849. The conditions noted are these: Proteus mirabilis; P. mirabilis IFO3849 (Test Example 3); read-out: MIC. An outline of the steps:
as §1

In test [3] the test system is E. cloacae ATCC13407. The conditions noted are these: Enterobacter cloacae; E. cloacae ATCC13407 (Test Example 3); read-out: MIC. The essentials:
as §1

For test [4], the system named is P. aeruginosa NCTC10490. The conditions noted are these: Pseudomonas aeruginosa; P. aeruginosa NCTC10490 (Test Example 3); read-out: MIC. An outline of the steps:
as §1

For test [5], the system named is S. aureus 209p JC-1. The conditions noted are these: Staphylococcus aureus; S. aureus 209p JC-1 (Test Example 3); read-out: MIC. An outline of the steps: as §1
Test [6] deals with C. freundii ATCC8090. Particulars: Citrobacter freundii; C. freundii ATCC8090 (Test Example 3); read-out: MIC. The essentials: as §1
In test [7] the test system is A. calcoaceticos T59. The conditions noted are these: A. calcoaceticos T59 (Test Example 3); read-out: MIC. The essentials: as §1
Test [8] concerns S. marcescens IAM1184. Particulars: Serratia marcescens; S. marcescens IAM1184 (Test Example 3); read-out: MIC. An outline of the steps: as §1
The subject of test [9] is S. aureus 195. Particulars: Staphylococcus aureus; S. aureus 195 (MRSA) (Test Example 3); read-out: MIC. The essentials:
as §1

Test [10] relates to A. faecalis ATCC3750. Particulars: Alcaligenes faecalis; A. faecalis ATCC3750 (Test Example 3); read-out: MIC. The essentials:
as §1

Test [11] deals with S. epidemidis IAM1296. Particulars: S. epidemidis IAM1296 (Test Example 3); read-out: MIC. The essentials:
as §1

SMILES strings stand for the structures. Values after ≈ are worked out from the molar mass of the structure shown.

As to `CO[C@@]1(NC(=O)CSC(F)F)C(=O)N2C(C(=O)O)=C(CSc3nnnn3CCO)CO[C@@H]21` [FMOX, flomoxef, reference compound], the MIC was 0.05 µg/mL (≈ 0.101 µM) in test [1]; 0.2 µg/mL (≈ 0.403 µM) in test [2]; 25 µg/mL (≈ 50.4 µM) in test [3]; above 100 µg/mL in test [4]; 0.39 µg/mL (≈ 0.786 µM) in [5]; 0.39 µg/mL (≈ 0.786 µM) in [6]. Besides, the MIC is 50 µg/mL (≈ 101 µM) in test [7]; 0.2 µg/mL (≈ 0.403 µM) in test [8]; 3.13 µg/mL (≈ 6.3 µM) in test [9]; 0.1 µg/mL (≈ 0.201 µM) in test [10]; 0.2 µg/mL (≈ 0.403 µM) in test [11].

The values are drawn from EP0554004A2, “Cephem compounds and antibacterial agents” (KATAYAMA SEIYAKUSYO CO. Ltd., priority 1992, dated 1993).
